Results taken from patent publication US20260365690A1, “COMPOUND FOR RNA CAPPING AND USE THEREOF” (GUANGZHOU HENOVCOM BIOSCIENCE CO., LTD., priority 2022, published 2026).

Columns and labels:
mRNA [1] = assay: mRNA synthesis by in vitro transcription (co-transcriptional capping), final product mass; type: biochemical; settings: obtained from 20 μL mRNA synthesis reaction system; T7 RNA Polymerase; cap analog 4 mM; 37 °C, 2 to 3 hours
Experimental: (§1) 1) The plasmids were linearized and the DNA templates were purified.
(§2) 2) The mRNA was synthesized by in vitro transcription, using 11 cap structures of the present disclosure, positive control CleanCap®AG (3′OMe) (Trilink, N-7413), negative control (uncapped mRNA) and blank control (DNase/RNase-Free water), respectively.
(§3) The reaction was carried out at 37 °C for 2 to 3 hours. TURBO DNase digestion was carried out for 15 minutes. The mRNA was precipitated by LiC for 30 min or more or overnight, and the mRNA precipitate was washed with 75% ethanol, dried briefly to evaporate the ethanol, and the mRNA was redissolved with RNase-Free water.
3) The transcription product was purified, and the reaction yield was calculated to provide the test results of some compounds, as shown in Table 2.

mRNA [2] = assay: Capping efficiency of mRNA by LC-MS; type: biochemical; settings: cap analog 4 mM in in vitro transcription, RNase H cleaved 5′ fragment
Experimental: as §1, §2, §3
Gradient annealing was performed in a PCR instrument: […]
5) Magnetic beads were pre-treated and bound to probes.
100 μL of magnetic beads were taken and placed on a magnetic stand. The storage solution was discarded, and 100 μL of 1*BW solution was added thereto. After mixing well, the mixture was placed on the magnetic stand, and the supernatant was discarded. The wash was carried out three times in the same way. 100 μL of wash A buffer was added thereto. After mixing well, the mixture was placed on the magnetic stand, and the supernatant was discarded. The wash was carried out three times in the same way. 100 μL of wash B buffer was added thereto. After mixing well, the mixture was placed on the magnetic stand, and the supernatant was discarded. The wash was carried out three times in the same way. 120 μL of the sample was added to the magnetic bead solution and incubated for 30 min at room temperature with gentle mixing while incubating.
6) The mRNA was cut to obtain the 5′ single-stranded sequence of mRNA bound to probes.
20 μL of RNase H (5 U/μL) was added thereto, incubated at 37 °C for 3 hours, and mixed well every half hour. 100 μL of 1*BW solution was added thereto. After mixing well, the mixture was placed on the magnetic stand, and the supernatant was discarded. The wash was carried out three times in the same way. 100 μL of deionized water solution was added thereto. After mixing well, the mixture was placed on the magnetic stand, and the supernatant was discarded. The wash was carried out three times in the same way. 100 μL of 75% methanol was added thereto at 80 °C, then the mixture was heated to 80 °C on a heating plate and held for 3 min, placed on the magnetic stand, and the supernatant was aspirated. The sample was dried at room temperature for 45 min to 10 μL using an evaporative centrifuge and then resuspended in 50 μL of 100 μM EDTA/1% MeOH for LC-MS analysis.
LC-MS was used to analyze the capping efficiency of mRNA synthesized by analogues with different cap structures. The capping efficiency results of some compounds in the detection results are now provided.

HEK293T cells = assay: Expression efficiency of capped luciferase mRNAs in HEK293T cells; type: cell-based; settings: 6 h after transfection of capped luciferase mRNA into HEK293T cells; ratio to N-7413 (= 1)
Experimental: 2. Evaluation of Expression Efficiency of Different Capped Luciferase mRNAs in HEK293T Cells
1) HNE293T cells were cultured in DMEM medium containing 10% FBS and penicillin/streptomycin at 37 °C and 5% CO2.
2) The cultured HEK293T cells were spread in a 96-well plate with 1.25×10^4 cells per well.
3) After the cells completely adhered to the wall, 0.5 μg of a mixture of mRNA sample and Polyplus jetMESSENGER was added to each well of cells, and cultured at 37 °C and 5% CO2 for 6 hours.
4) The growth medium was removed from the cells to be tested and the cells were rinsed with PBS. After centrifugation to remove PBS, 50 μL of 1× lysis buffer was added thereto, and cells and all liquid were transferred to a microcentrifuge tube, and then centrifuged at 12000×g and 4 °C for 2 min.
5) The supernatant was transferred to a new tube. Fluorescence readings were detected using the ONE-Glo Luciferase Assay System Kit.
3. All compounds, N-7413, negative control and blank control were tested under the same conditions, and some experimental results in the test results are shown in Table 5.
The relative fluorescence reading results (6 h) after transfection of capped mRNA into 293T cells are now provided, as shown in Table 5. It can be seen from the FIGURE that the mRNA capped by the compound of the present disclosure has a high expression level, and some cap structures can enable higher expression efficiency of mRNA compared to N-7413.

SMILES: CO[C@@H]1[C@H](OP(=O)(O)OC[C@H]2O[C@@H](n3cnc4c(=O)[nH]c(N)nc43)[C@H](O)[C@@H]2O)[C@@H](COP(=O)(O)OP(=O)(O)OP(=O)(O)OC[C@H]2O[C@@H](n3c[n+](C)c4c(=O)[nH]c(N)nc43)[C@H](O)[C@@H]2CCF)O[C@H]1n1cnc2c(N)ncnc21 [Compound 19]
- Final product mass (mRNA [1]): 137 µg
- Capping efficiency (mRNA [2]): A (100% > A ≥ 95%)
- Relative fluorescence reading (HEK293T cells): 1.52

SMILES: CCC[C@H]1[C@@H](O)[C@H](n2c[n+](C)c3c(=O)[nH]c(N)nc32)O[C@@H]1COP(=O)(O)OP(=O)(O)OP(=O)(O)OC[C@H]1O[C@@H](n2cnc3c(N)ncnc32)[C@H](OC)[C@@H]1OP(=O)(O)OC[C@H]1O[C@@H](n2cnc3c(=O)[nH]c(N)nc32)[C@H](O)[C@@H]1O.[Na+] [Compound 5]
- Final product mass (mRNA [1]): 117 µg
- Capping efficiency (mRNA [2]): A (100% > A ≥ 95%)
- Relative fluorescence reading (HEK293T cells): 1.85

SMILES: CO[C@@H]1[C@H](OP(=O)(O)OC[C@H]2O[C@@H](n3cnc4c(=O)[nH]c(N)nc43)[C@H](O)[C@@H]2O)[C@@H](COP(=O)(O)OP(=O)([O-])OP(=O)(O)OC[C@H]2O[C@@H](n3c[n+](C)c4c(=O)[nH]c(N)nc43)[C@H](O)[C@@H]2C(=O)N(C)C)O[C@H]1n1cnc2c(N)ncnc21 [Compound 193]
- Final product mass (mRNA [1]): 105 µg
- Capping efficiency (mRNA [2]): A (100% > A ≥ 95%)
- Relative fluorescence reading (HEK293T cells): 1.64

SMILES: CO[C@@H]1[C@H](OCOC[C@H]2O[C@@H](n3cnc4c(=O)[nH]c(N)nc43)[C@H](O)[C@@H]2O)[C@@H](COP(=O)(O)OP(=O)(O)OP(=O)(O)OC[C@H]2O[C@@H](n3c[n+](C)c4c(=O)[nH]c(N)nc43)[C@H](O)[C@@H]2C)O[C@H]1n1cnc2c(N)ncnc21 [Compound 57]
- Final product mass (mRNA [1]): 90 µg
- Capping efficiency (mRNA [2]): C (90% > C ≥ 80%)
- Relative fluorescence reading (HEK293T cells): 0.88
